Results on 16 compounds are retold here after patent publication EP0725790B1, “SUBSTITUTED TETRA- AND PENTAPEPTIDE INHIBITORS OF PROTEIN:FARNESYL TRANSFERASE” (PARKE DAVIS & COMPANY, priority 1993, dated 1995).

Non-standard residues stand in square brackets, D forms with d. Residues, ends and D or L forms follow the SMILES beside them. *: point of attachment. pY = N[C@@H](Cc1ccc(OP(=O)(O)O)cc1)C(=O)O; Cbz = O=C(OCc1ccccc1)*; Bn = c1ccc(C*)cc1; NHNH2 = NN*

This assay concerns the target T1, rat brain farnesyl protein transferase (Rattus norvegicus, UniProt Q02293+Q04631).
T1 construct: 40-fold purified rat brain farnesyl protein transferase; from tissue; host or cells: rat brain
Description: PFT inhibitory activity assay (radiolabeled farnesyl pyrophosphate, biotinylated peptide substrate, streptavidin beads). In kind it is biochemical. The settings on record: 40-fold purified enzyme; 30 mM potassium phosphate buffer, pH 7.4; 37°C for 30 minutes; farnesyl pyrophosphate 0.12 µM, (biotinyl)-Ahe-Tyr-Lys-Cys-Val-Ile-Met 0.1 µM. The method, then:
The PFT inhibitory activity of compounds of Formula I was assayed in 30 mM potassium phosphate buffer, pH 7.4, containing 7 mM DTT, 1.2 mM MgCl2, 0.1 mM leupeptin, 0.1 mM pepstatin, and 0.2 mM phenylmethylsulfonyl fluoride. Assays were performed in 96 well plates (Wallec) and employed solutions composed of varying concentrations of a compound of Formula I in 100% DMSO. Upon addition of both substrates, radiolabeled farnesyl pyrophosphate ([1-^3H], specific activity 15-30 Ci/mmol, final concentration 0.12 µM) and (biotinyl)-Ahe-Tyr-Lys-Cys-Val-Ile-Met peptide (final concentration 0.1 µM), the enzyme reaction was started by addition of 40-fold purified rat brain farnesyl protein transferase. After incubation at 37°C for 30 minutes, the reaction was terminated by diluting the reaction 2.5-fold with a stop buffer containing 1.5 M magnesium acetate, 0.2 M H3PO4, 0.5% BSA, and strepavidin beads (Amersham) at a concentration of 1.3 mg/mL. After allowing the plate to settle for 30 minutes at room temperature, radioactivity was quantitated on a microBeta counter (model 1450, Wallec).
Regarding `C[C@@H](NC(=O)[C@H](Cc1c[nH]c2ccccc12)NC(=O)[C@H](COCc1ccccc1)NC(=O)[C@H](Cc1ccc(OCc2ccccc2)cc1)NC(=O)[C@@H](Cc1c[nH]cn1)NC(=O)OCc1ccccc1)C(N)=O` [Cbz-DHis-Tyr (OBn)-Ser(OBn)-Trp-DAla-NH2, Cbz-D-His-Tyr(OBn)-Ser(OBn)-Trp-D-Ala- NH2] (Cbz-[dH]Y(Bn)S(Bn)W[dA]-NH2), half-maximal inhibition (IC50) required 120 nM. Next, `C[C@@H](NC(=O)[C@H](Cc1c[nH]c2ccccc12)NC(=O)[C@H](COCc1ccccc1)NC(=O)[C@@H](Cc1ccc(OCc2ccccc2)cc1)NC(=O)[C@H](Cc1c[nH]cn1)NC(=O)OCc1ccccc1)C(N)=O` [Cbz-His-DTyr(OBn)-Ser(OBn)-Trp-DAla-NH2, Cbz-His-D-Tyr(OBn)-Ser(OBn)-Trp-D-Ala- NH2] (Cbz-H[dY](Bn)S(Bn)W[dA]-NH2): 39 nM; `C[C@@H](NC(=O)[C@H](Cc1c[nH]c2ccccc12)NC(=O)[C@H](COCc1ccccc1)NC(=O)[C@H](Cc1ccccc1)NC(=O)[C@H](Cc1c[nH]cn1)NC(=O)OCc1ccccc1)C(N)=O` [Cbz-His-Phe-Ser(OBn)-Trp-DAla-NH2, Cbz-His-Phe-Ser(OBn)-Trp-D-Ala- NH2] (Cbz-HFS(Bn)W[dA]-NH2): 10 nM; `C[C@@H](NC(=O)[C@H](Cc1c[nH]c2ccccc12)NC(=O)[C@H](CS)NC(=O)[C@H](Cc1ccc(OCc2ccccc2)cc1)NC(=O)[C@H](Cc1c[nH]cn1)NC(=O)OCc1ccccc1)C(N)=O` [Cbz-His-Tyr (OBn)-Cys-Trp-DAla-NH2] (Cbz-HY(Bn)CW[dA]-NH2): 4 nM. In the case of `C[C@H](NC(=O)[C@H](COCc1ccccc1)NC(=O)[C@H](Cc1ccc(OCc2ccccc2)cc1)NC(=O)[C@H](Cc1c[nH]cn1)NC(=O)OCc1ccccc1)C(=O)N[C@H](C)C(N)=O` [Cbz-His-Tyr (OBn)-Ser(OBn)-Ala-DAla-NH2, Cbz-His-Tyr(OBn)-Ser(OBn)-Ala-D-Ala- NH2] (Cbz-HY(Bn)S(Bn)A[dA]-NH2), the IC50 stood at 330 nM.

`COC(=O)[C@H](Cc1c[nH]c2ccccc12)NC(=O)[C@H](COCc1ccccc1)NC(=O)[C@H](Cc1ccc(OCc2ccccc2)cc1)NC(=O)[C@H](Cc1c[nH]cn1)NC(=O)OCc1ccccc1` [Cbz-His-Tyr(OBn)-Ser(OBn)-Trp- OMe, N-[N-[N-[N-[(Phenylmethoxy)carbonyl]-L-histidyl]-O-(phenylmethyl)-L-tyrosyl]-O-(phenylmethyl)-L-seryl]-L-tryptophan, methyl ester] (Cbz-HY(Bn)S(Bn)W-OMe) returned an IC50 of 115 nM.

Compound `C[C@H](NC(=O)[C@H](Cc1c[nH]c2ccccc12)NC(=O)[C@H](COCc1ccccc1)NC(=O)[C@H](Cc1ccc(OCc2ccccc2)cc1)NC(=O)[C@H](Cc1c[nH]cn1)NC(=O)OCc1ccccc1)C(N)=O` [Cbz-His-Tyr(OBn)-Ser(OBn)-Trp-Ala-NH2, Cbz-His-Tyr(OBn)-Ser(OBn)-Trp-Ala- NH2] (Cbz-HY(Bn)S(Bn)WA-NH2) displayed an IC50 of 15 nM. The value for `C[C@@H](NC(=O)[C@H](Cc1c[nH]c2ccccc12)NC(=O)[C@H](COCc1ccccc1)NC(=O)[C@H](Cc1ccc(OCc2ccccc2)cc1)NC(=O)[C@H](Cc1c[nH]cn1)NC(=O)OCc1ccccc1)C(=O)NN` [Cbz-His-Tyr(OBn)-Ser(OBn)-Trp-D-Ala- NHNH2] (Cbz-HY(Bn)S(Bn)W[dA]-NHNH2) was 62 nM. The value for `C[C@@H](NC(=O)[C@H](Cc1c[nH]c2ccccc12)NC(=O)[C@H](COCc1ccccc1)NC(=O)[C@H](Cc1ccc(OCc2ccccc2)cc1)NC(=O)[C@H](Cc1c[nH]cn1)NC(=O)OCc1ccccc1)C(N)=O` [Cbz-His-Tyr(OBn)-Ser(OBn)-Trp-DAla- NH2, Nα-[N-[N-[N-[N-[(Phenylmethoxy)carbonyl]-L-histidyl]-O-(phenylmethyl)-L-tyrosyl]-O-(phenylmethyl)-L-seryl]-Ltryptophyl]-D-alaninamide] (Cbz-HY(Bn)S(Bn)W[dA]-NH2) was 17 nM; that for `CCNC(=O)[C@@H](C)NC(=O)[C@H](Cc1c[nH]c2ccccc12)NC(=O)[C@H](COCc1ccccc1)NC(=O)[C@H](Cc1ccc(OCc2ccccc2)cc1)NC(=O)[C@H](Cc1c[nH]cn1)NC(=O)OCc1ccccc1` [Cbz-His-Tyr(OBn)-Ser(OBn)-Trp-DAla- NHEt, Cbz-His-Tyr(OBn)-Ser(OBn)-Trp-D-Ala- NHEt] (Cbz-HY(Bn)S(Bn)W[dA]-NHEt) was 230 nM.

As to `C[C@@H](NC(=O)[C@H](Cc1c[nH]c2ccccc12)NC(=O)[C@H](COCc1ccccc1)NC(=O)[C@H](Cc1ccc(OCc2ccccc2)cc1)NC(=O)[C@H](Cc1c[nH]cn1)NC(=O)OCc1ccccc1)C(=O)O` [Cbz-His-Tyr(OBn)-Ser(OBn)-Trp-DAla- OH, Cbz-His-Tyr(OBn)-Ser(OBn)-Trp-D-Ala] (Cbz-HY(Bn)S(Bn)W[dA]-OH), the IC50 was found to be 48 nM. The value for `COC(=O)[C@@H](C)NC(=O)[C@H](Cc1c[nH]c2ccccc12)NC(=O)[C@H](COCc1ccccc1)NC(=O)[C@H](Cc1ccc(OCc2ccccc2)cc1)NC(=O)[C@H](Cc1c[nH]cn1)NC(=O)OCc1ccccc1` [Cbz-His-Tyr(OBn)-Ser(OBn)-Trp-DAla-OMe, Cbz-His-Tyr(OBn)-Ser(OBn)-Trp-D-Ala-OMe] (Cbz-HY(Bn)S(Bn)W[dA]-OMe) was 19 nM; that for `NC(=O)[C@H](Cc1c[nH]c2ccccc12)NC(=O)[C@H](COCc1ccccc1)NC(=O)[C@H](Cc1ccc(OCc2ccccc2)cc1)NC(=O)[C@H](Cc1c[nH]cn1)NC(=O)OCc1ccccc1` [Cbz-His-Tyr(OBn)-Ser(OBn)-Trp-NH2, Cbz-His-Tyr(OBn)-Ser(OBn)-Trp- NH2] (Cbz-HY(Bn)S(Bn)W-NH2) was 83 nM. Next, `C[C@@H](NC(=O)[C@H](Cc1c[nH]c2ccccc12)NC(=O)[C@H](CO)NC(=O)[C@H](Cc1ccc(OCc2ccccc2)cc1)NC(=O)[C@H](Cc1c[nH]cn1)NC(=O)OCc1ccccc1)C(N)=O` [Cbz-His-Tyr(OBn)-Ser-Trp-DAla-NH2, Cbz-His-Tyr(OBn)-Ser-Trp-D-Ala- NH2] (Cbz-HY(Bn)SW[dA]-NH2): 1800 nM; `C[C@@H](NC(=O)[C@H](Cc1c[nH]c2ccccc12)NC(=O)[C@H](COCc1ccccc1)NC(=O)[C@H](Cc1ccc(OP(=O)(O)O)cc1)NC(=O)[C@H](Cc1c[nH]cn1)NC(=O)OCc1ccccc1)C(N)=O` [Cbz-His-Tyr(OPO3H2)-Ser(OBn)-Trp-DAla- NH2] (Cbz-H[pY]S(Bn)W[dA]-NH2): 9 nM. The value for `C[C@@H](NC(=O)[C@H](Cc1c[nH]c2ccccc12)NC(=O)[C@H](COCc1ccccc1)NC(=O)[C@H](Cc1ccc(O)cc1)NC(=O)[C@H](Cc1c[nH]cn1)NC(=O)OCc1ccccc1)C(N)=O` [Cbz-His-Tyr-Ser(OBn)-Trp-DAla-NH2, Cbz-His-Tyr-Ser(OBn)-Trp-D-Ala- NH2] (Cbz-HYS(Bn)W[dA]-NH2) was 40 nM.
